Where two headings read alike, the source gives them in different places.
Legend:
[1] = test system: southern root-knot nematode (Meloidogyne incognita); experiment: Meloidogyne incognita test (sand, lettuce, acetone solvent, 14 days); format: in vivo; conditions: application rate 20 ppm, after 14 days; for pest or weed control at 20 ppm: Meloidogyne incognita, 336 h, read-out: nematicidal efficacy (formation of galls)
Protocol: Meloidogyne incognita Test
Solvent: 125.0 parts by weight of acetone
To produce an appropriate active ingredient formulation, 1 part by weight of active ingredient is mixed with the stated amount of solvent and the concentrate is diluted with water to the desired concentration.
Vessels are filled with sand, active ingredient solution, an egg/larvae suspension of the southern root-knot nematode (Meloidogyne incognita) and lettuce seeds. The lettuce seeds germinate and the plants develop. The galls develop on the roots
After 14 days, the nematicidal efficacy in % is determined by the formation of galls. 100% means that no galls were found; 0% means that the number of galls on the treated plants corresponds to the untreated control.

[2] = test system: greenhouse red spider mite (Tetranychus urticae); experiment: Tetranychus urticae spray test, OP-resistant (bean leaf discs); format: in vivo; conditions: after 6 days; for pest or weed control at 500 g/ha: Tetranychus urticae, foliar, 144 h, read-out: efficacy (spider mites killed)
Protocol: Tetranychus urticae—Spray Test, OP-Resistant
Solvent: 78.0 parts by weight of acetone • • 1.5 parts by weight of dimethylformamide
Emulsifier: alkylaryl polyglycol ether
To produce an appropriate active ingredient formulation, 1 part by weight of active ingredient is dissolved using the specified parts by weight of solvent and made up with water containing an emulsifier concentration of 1000 ppm until the desired concentration is attained. To produce further test concentrations, the preparation is diluted with emulsifier-containing water.
Discs of bean leaves (Phaseolus vulgaris) infested by all stages of the greenhouse red spider mite (Tetranychus urticae) are sprayed with an active ingredient formulation of the desired concentration.
After 6 days, the efficacy in % is determined. 100% means that all the spider mites have been killed; 0% means that none of the spider mites have been killed.

[3] = log P by reversed-phase HPLC analogously to OECD Guideline 117; format: physicochemical; conditions: for chromatographic logP: reversed-phase C18 HPLC column
Protocol: The log P values were determined analogously to OECD Guideline 117 (EC Directive 92/69/EEC) by HPLC (high-performance liquid chromatography) using reversed-phase columns (C 18), by the following methods:
[a] LC-MS determination in the acidic range is effected at pH 2.7 with 0.1% aqueous formic acid and acetonitrile (containing 0.1% formic acid) as eluents with a linear gradient from 10% acetonitrile to 95% acetonitrile; or with 0.025% aqueous trifluoroacetic acid and acetonitrile (containing 0.025% trifluoroacetic acid) as eluents with a linear gradient from 50% acetonitrile to 80% acetonitrile.
[b] LC-MS determination in the neutral range is effected at pH 7.8 with 0.001 molar aqueous ammonium hydrogencarbonate solution and acetonitrile as eluents; linear gradient from 10% acetonitrile to 95% acetonitrile.
Calibration is effected with solutions of a homologous series of unbranched alkan-2-ones (having 3 to 16 carbon atoms) with known log P values (log P values determined on the basis of the retention times by linear interpolation between two successive alkanones).

[4] = [a] acidic range, pH 2.7, formic acid (or trifluoroacetic acid)/acetonitrile
[5] = [b] neutral range, pH 7.8, ammonium hydrogencarbonate/acetonitrile
[6] = pH 2.7, running text, [a] acidic range, pH 2.7, read-out: log P[a]
[7] = pH 2.7, table column, [a] acidic range, pH 2.7, formic acid (or trifluoroacetic acid)/acetonitrile, read-out: LogP[a]
[8] = pH 7.8, running text, [b] neutral range, pH 7.8, read-out: log P[b]
[9] = pH 7.8, table column, [b] neutral range, pH 7.8, ammonium hydrogencarbonate/acetonitrile, read-out: LogP[b]

Compound	nematicidal efficacy (formation of galls) [1] [%]	efficacy (spider mites killed) ([2]; application rate 500 g/ha) [%]	LogP[a] [3, 4]	LogP[b] [3, 5]	pest or weed control at 20 ppm [1] [%]	pest or weed control at 500 g/ha ([2]; application rate 500 g/ha) [%]	chromatographic logP [3, 6]	chromatographic logP [3, 7]	chromatographic logP [3, 8]	chromatographic logP [3, 9]	efficacy (spider mites killed) ([2]; application rate 100 g/ha) [%]	efficacy (spider mites killed) ([2]; application rate 20 g/ha) [%]
Cc1cc(F)c(-n2ccc(=O)n(CC3CC3)c2=O)cc1SCC(F)(F)F [compound 74]	100	90	3.24	3.38								
CCCn1c(=O)ccn(-c2cc(SCC(F)(F)F)c(C)cc2F)c1=O [compound 78]	100	90	3.13	3.27								
Cc1ccc(-n2ccc(=O)n(C)c2=O)cc1SCC(F)(F)F [Ex. No. 58, 3-Methyl-1-{4-methyl-3-[(2,2,2-trifluoroethyl)sulphanyl]phenyl}pyrimidine-2,4(1H,3H)-dione]					100	90	2.48	2.39	2.39	2.48		
Cc1cc(F)c(-n2ccc(=O)n(Cc3ccc(F)cc3)c2=O)cc1[S+]([O-])CC(F)(F)F (racemic) [compound 64]	100		2.68	2.77							90	
CCn1c(=O)ccn(-c2cc(SCC(F)(F)F)c(C)cc2F)c1=O [Ex. No. 71, 3-Ethyl-1-{2-fluoro-4-methyl-5-[(2,2,2-trifluoroethyl)sulphanyl]phenyl}pyrimidine-2,4(1H,3H)-dione]					100	90	2.93	2.86	2.86	2.93		
Cc1cc(F)c(-n2ccc(=O)n(CC(F)F)c2=O)cc1[S+]([O-])CC(F)(F)F (stereo not shown) [compound 70]	100	90	2.06	2.11								
Cc1cc(F)c(-n2ncc(=O)n(C(C)C)c2=O)cc1[S+]([O-])CC(F)(F)F (racemic) [compound 30]	100	100	2.64	2.58								
Cc1cc(F)c(-n2ccc(=O)n(CC(F)(F)F)c2=O)cc1SCC(F)(F)F [compound 72]	100	90	3.16	3.29								
Cc1ccc(-n2ccc(=O)n(CC#N)c2=O)cc1SCC(F)(F)F [compound 85]	90	100	2.55	2.62								
COCn1c(=O)ccn(-c2cc([S+]([O-])CC(F)(F)F)c(C)cc2F)c1=O (stereo not shown) [compound 68]	100	90	1.67	1.74								
Cc1ccc(-n2ccc(=O)n(CC3CC3)c2=O)cc1SCC(F)(F)F [compound 86]	90	100	3.21	3.31								
Cc1cc(F)c(-n2ccc(=O)n(Cc3ccc(F)cc3)c2=O)cc1SCC(F)(F)F [compound 76]	100	90	3.56	3.74								
CCn1c(=O)ccn(-c2ccc(C)c([S+]([O-])CC(F)(F)F)c2)c1=O (stereo not shown) [compound 98]	100	100	1.77	1.77								
Cc1cc(F)c(-n2ccc(=O)n(C)c2=O)cc1SCC(F)(F)F [Ex. No. 53, 1-{2-Fluoro-4-methyl-5-[(2,2,2-trifluoroethyl)sulphanyl]phenyl}-3-methylpyrimidine-2,4(1H,3H)-dione]					100	90	2.59	2.53	2.53	2.59		
Cc1cc(F)c(-n2ccc(=O)[nH]c2=O)cc1[S+]([O-])CC(F)(F)F (stereo not shown) [Ex. No. 56, 1-{2-Fluoro-4-methyl-5-[(2,2,2-trifluoroethyl)sulphinyl]phenyl}pyrimidine-2,4(1H,3H)-dione]					90	100	1.3	1.24	1.24	1.3		
Cc1cc(F)c(-n2ccc(=O)n(CC#N)c2=O)cc1SCC(F)(F)F [compound 73]	100	90	2.62	2.65								
C#CCn1c(=O)ccn(-c2cc([S+]([O-])CC(F)(F)F)c(C)cc2F)c1=O (stereo not shown) [compound 67]	100		1.86	1.92								90
Cc1ccc(-n2ccc(=O)n(CC(F)(F)F)c2=O)cc1SCC(F)(F)F [compound 84]	100	100	3.16	3.15								
Cc1cc(F)c(-n2ccc(=O)n(C(C)C)c2=O)cc1SCC(F)(F)F [compound 75]	100		3.21	3.35							90	
CCn1c(=O)ccn(-c2cc([S+]([O-])CC(F)(F)F)c(C)cc2C)c1=O (stereo not shown) [compound 97]	90	100	1.96	1.99								
C=CCn1c(=O)ccn(-c2cc(SCC(F)(F)F)c(C)cc2F)c1=O [compound 77]	100	90	3.08	3.06								
Cn1c(=O)cnn(-c2cc(SCC(F)(F)F)c(Cl)cc2Cl)c1=O [compound 14]	90	100	3.31									
Cc1cc(F)c(-n2ncc(=O)n(CC#N)c2=O)cc1SCC(F)(F)F [compound 39]	90	100	2.96	2.9								
Cc1ccc(-n2ccc(=O)n(C(C)C)c2=O)cc1SCC(F)(F)F [compound 87]	90	100	3.18	3.25								
C=CCn1c(=O)ccn(-c2cc([S+]([O-])CC(F)(F)F)c(C)cc2F)c1=O (racemic) [compound 65]	100		2.01	2.08							90	
CCn1c(=O)ccn(-c2cc([S+]([O-])CC(F)(F)F)c(C)cc2F)c1=O (stereo not shown) [Ex. No. 59, 3-Ethyl-1-{2-fluoro-4-methyl-5-[(2,2,2-trifluoroethyl)sulphinyl]phenyl}pyrimidine-2,4(1H,3H)-dione]					100	90	1.94	1.88	1.88	1.94		
Cc1cc(F)c(-n2ccc(=O)n(CC3CC3)c2=O)cc1[S+]([O-])CC(F)(F)F (racemic) [compound 62]	100	90	2.29	2.37								
Cc1ccc(-n2ccc(=O)n(CC#N)c2=O)cc1[S+]([O-])CC(F)(F)F (stereo not shown) [compound 100]	100	90	1.63	1.62								

From US9783509B2, “Six-membered C-N-linked aryl sulfide derivatives and aryl sulfoxide derivatives as pest conrol agents” (BAYER CROPSCIENCE AKTIENGESELLSCHAFT, priority 2013, dated 2017)
